Measurements published in publication PMC11714206, “Massively Parallel Screening of Toll/Interleukin‐1 Receptor (TIR)‐Derived Peptides Reveals Multiple Toll‐Like Receptors (TLRs)‐Targeting Immunomodulatory Peptides” (Advanced Science, 2024).
Several values for one entry are separate records, joined by “and”; a condition that tells them apart may be missing. Identical values can stand only once.

Target: T1, MyD88^TIR (Homo sapiens, UniProt Q99836)
T1 construct: MyD88 (residues 148–296); 6xHis; made in house; host or cells: E. coli BL21 (DE3)
Experiment: T‐Surf phage library (P8 and P3) selection against MyD88^TIR, four rounds, NGS read counts
Format: binding
Conditions: for Population: 4th round of selection against MyD88 TIR, share of NGS reads; for P8_MyD88 Rank (after) / P8_MyD88 Rank (before): P8 library; for P3_MyD88 Rank (after) / P3_MyD88 Rank (before): P3 library
Outline: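 Four panning rounds on TIR domain adsorbed at 5 µg mL^−1; binding 1 h at 20–22 °C, elution with 100 mM HCl. Output: NGS read counts of round‐4 pools versus naïve library.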

[1] = P8_MyD88: rank by count after grouping
[2] = P8_MyD88: rank by count before grouping
[3] = P8_MyD88 pool: P8 T-Surf phage library
[4] = selection against MyD88, rank after grouping
[5] = selection against MyD88, rank before grouping
[6] = P8_MyD88: rank by NGS read count after grouping
[7] = P8_MyD88: rank by NGS read count before grouping
[8] = 4R selection against MyD88, rank after grouping
[9] = 4R selection against MyD88, rank before grouping
[10] = P3_MyD88: rank by count after grouping
[11] = P3_MyD88: rank by count before grouping
[12] = selection against MyD88, rank by count after grouping
[13] = selection against MyD88, rank by count before grouping
[14] = selection against MyD88 TIR, rank by count after grouping
[15] = selection against MyD88 TIR, rank by count before grouping
[16] = P3_MyD88 pool: P3 T-Surf phage library

T1 sequence (Q99836 148-296): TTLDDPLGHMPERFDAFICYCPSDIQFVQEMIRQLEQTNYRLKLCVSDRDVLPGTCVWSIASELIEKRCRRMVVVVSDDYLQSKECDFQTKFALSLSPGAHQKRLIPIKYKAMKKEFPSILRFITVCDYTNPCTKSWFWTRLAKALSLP

WFLTAFRMAMDQVADT
Rank (after) [1]: 95 | Rank (before) [2]: 100 | Population [3]: 0.025%

DPQDLDWFYERLVILF
Population [3]: 0.0131%

LGYRLMFWDYFVGIVD
P8_MyD88 Rank (after) [4]: 548 | P8_MyD88 Rank (before) [5]: 3225

YLLLRVLQTIFLRRTD
Rank (after) [6]: 898 | Rank (before) [7]: 1967

LGYQWNDWEYFVGIED
Rank (after) [6]: 957 | Rank (before) [7]: 3326

EDTLIRLLVQRIMKEL
Rank (after) [1]: 173 | Rank (before) [2]: 198

LQNQWKLALTNSGFHTFRDND
P3_MyD88 Rank (after) [8]: 585 | P3_MyD88 Rank (before) [9]: 2346

YTALTNICFHTFRDND
Rank (after) [10]: 178 | Rank (before) [11]: 1654

LGYQWIDWEFFVGIED
P8_MyD88 Rank (after) [12]: 756 | P8_MyD88 Rank (before) [13]: 3321

KFFLFFMILAFSMNR
P8_MyD88 Rank (after) [4]: 487 | P8_MyD88 Rank (before) [5]: 3892

ELDFSHFWLFDGQAGGAA
Rank (after) [6]: 917 | Rank (before) [7]: 3182

IVQEQDGFWVRLIEAL
P8_MyD88 Rank (after) [8]: 616 | P8_MyD88 Rank (before) [9]: 3611

WALDELLQILHACEPF
P8_MyD88 Rank (after) [4]: 524 | P8_MyD88 Rank (before) [5]: 1441

QYSGTPLAHTSKFPDE
P3_MyD88 Rank (after) [8]: 605 | P3_MyD88 Rank (before) [9]: 2832

YTALINSGFHTFRDNH
P3_MyD88 Rank (after) [14]: 273 | P3_MyD88 Rank (before) [15]: 1637

LVAQEISKKMKIFATI
Population [16]: 0.00495% and 0.00466%

SSFREGLWRLLGLRKK
P3_MyD88 Rank (after) [4]: 553 | P3_MyD88 Rank (before) [5]: 3165

LGYKRIDWEYFVGIED
P8_MyD88 Rank (after) [4]: 573 | P8_MyD88 Rank (before) [5]: 3354

VANILGYHWMDWVYFV
P8_MyD88 Rank (after) [4]: 563 | P8_MyD88 Rank (before) [5]: 2191

AVDKETDKIQTAEKC
P3_MyD88 Rank (after) [14]: 242 | P3_MyD88 Rank (before) [15]: 924

LGYHWIGWEYCVGIED
P8_MyD88 Rank (after) [4]: 482 | P8_MyD88 Rank (before) [5]: 3246

SENYATRPWAPDELVL
P3_MyD88 Rank (after) [8]: 673 | P3_MyD88 Rank (before) [9]: 2999

NELVHVWSSKANSLVG
P8_MyD88 Rank (after) [12]: 696 | P8_MyD88 Rank (before) [13]: 3874

YLRADDSCSWEKLRYA
P8_MyD88 Rank (after) [12]: 694 | P8_MyD88 Rank (before) [13]: 2043

SSFRESLWRLLALNKR
Rank (after) [10]: 395 | Rank (before) [11]: 3228

SRYREGLWRLLELSKK
Rank (after) [10]: 123 | Rank (before) [11]: 3109

DSWTSAALYEALHALL
Rank (after) [1]: 156 | Rank (before) [2]: 172 | Population [3]: 0.00809%

YELVHVWSSKANSLVG
Population [16]: 0.0032%

LGYHWIVWEYFVGIDD
Rank (after) [1]: 421 | Rank (before) [2]: 3244

WALNELLEIMQAKRDL
P8_MyD88 Rank (after) [14]: 258 | P8_MyD88 Rank (before) [15]: 429

YLKWGYPWFWDRLRFA
P8_MyD88 Rank (after) [4]: 571 | P8_MyD88 Rank (before) [5]: 2084

DYASSSWALDVLWNIF
Rank (after) [6]: 950 | Rank (before) [7]: 2507

MFGGDPLHDFLDLISL
P8_MyD88 Rank (after) [8]: 592 | P8_MyD88 Rank (before) [9]: 3655

DPMVAEWVLNHLRFEL
P8_MyD88 Rank (after) [14]: 193 | P8_MyD88 Rank (before) [15]: 246

DPQELEGVYERLVSLF
Rank (after) [1]: 405 | Rank (before) [2]: 2994

SSFREGLWRLQELSKT
Rank (after) [10]: 158 | Rank (before) [11]: 3187

YAASTWWHTVLARLMG
P8_MyD88 Rank (after) [4]: 540 | P8_MyD88 Rank (before) [5]: 1760

EWSREQLRPALKESLP
P3_MyD88 Rank (after) [14]: 239 | P3_MyD88 Rank (before) [15]: 2184

DSLFWDRLLYSLHVTD
Population [3]: 0.00732%

YASYDDNDYYWVTHVLLRH
Rank (after) [6]: 997 | Rank (before) [7]: 1799

DPQDLARSYERLVRLF
P8_MyD88 Rank (after) [8]: 610 | P8_MyD88 Rank (before) [9]: 2690

SENYATSAWALEELVL
P3_MyD88 Rank (after) [14]: 214 | P3_MyD88 Rank (before) [15]: 2961

PNLRTKVLNYLMRTKT
P8_MyD88 Rank (after) [12]: 705 | P8_MyD88 Rank (before) [13]: 3508

WDYASNMEQFWDPLYY
P8_MyD88 Rank (after) [8]: 675 | P8_MyD88 Rank (before) [9]: 1642

PEKDNGGENALSITL
P3_MyD88 Rank (after) [14]: 218 | P3_MyD88 Rank (before) [15]: 1121

DWVWDYLLPKLECPSG
P8_MyD88 Rank (after) [8]: 579 | P8_MyD88 Rank (before) [9]: 2447

YYFTIGIAKRKLSRK
P8_MyD88 Rank (after) [12]: 692 | P8_MyD88 Rank (before) [13]: 1687

DSLIWDRLLYSIKVTE
P8_MyD88 Rank (after) [12]: 737 | P8_MyD88 Rank (before) [13]: 3124

FLSYREGLWRLLELSKK
P3_MyD88 Rank (after) [4]: 498 | P3_MyD88 Rank (before) [5]: 1376

LKVESWRQALDELVL
P3_MyD88 Rank (after) [14]: 261 | P3_MyD88 Rank (before) [15]: 1077

WALDLQWFYERLVSLI
Rank (after) [1]: 480 | Rank (before) [2]: 1518

GLYDELFMTETDERKR
Rank (after) [10]: 439 | Rank (before) [11]: 1851

NLSGWHILDGFLFDEF
Rank (after) [1]: 125 | Rank (before) [2]: 134 | Population [3]: 0.0131%

KNLLNALMSKNIRTFM
P3_MyD88 Rank (after) [8]: 622 | P3_MyD88 Rank (before) [9]: 3789

DHLDPSHLRKQSGEFG
P3_MyD88 Rank (after) [12]: 734 | P3_MyD88 Rank (before) [13]: 1991

DPPVLEWFYESLFSQM
P8_MyD88 Rank (after) [8]: 601 | P8_MyD88 Rank (before) [9]: 2624

NFVEYFVYQMMPDILE
Rank (after) [1]: 153 | Rank (before) [2]: 167 | Population [3]: 0.00886%

YYFTDWDSEAEIIQKM
Rank (after) [1]: 112 | Rank (before) [2]: 118 | Population [3]: 0.02%

VQWADPWFWDKLAYEK
Rank (after) [6]: 1016 | Rank (before) [7]: 2215

DPQDLDWVYERLVSLI
P8_MyD88 Rank (after) [14]: 271 | P8_MyD88 Rank (before) [15]: 2825

RFWERLRPALKERLP
Rank (after) [10]: 449 | Rank (before) [11]: 2551

LKWGEPYFCSKLRYAM
Rank (after) [10]: 476 | Rank (before) [11]: 2449

IDDDHLTYLVRLLYSLHVT
P8_MyD88 Rank (after) [8]: 669 | P8_MyD88 Rank (before) [9]: 3630

LKVESCRQALEKTGKL
Rank (after) [10]: 181 | Rank (before) [11]: 2473

YNLAQYLHVSLMARGI
P8_MyD88 Rank (after) [8]: 664 | P8_MyD88 Rank (before) [9]: 2134

LKWGDPAYRLALHYRDFN
P3_MyD88 Rank (after) [4]: 500 | P3_MyD88 Rank (before) [5]: 2445

LVAHEISKMMKVFATI
P3_MyD88 Rank (after) [12]: 694 | P3_MyD88 Rank (before) [13]: 2285

DPHDLVWFYERLVSLF
P8_MyD88 Rank (after) [14]: 230 | P8_MyD88 Rank (before) [15]: 2631

PQDLEWLYERLVRLIL
P8_MyD88 Rank (after) [14]: 287 | P8_MyD88 Rank (before) [15]: 3472

NQWRNALTAAASLSGW
Population [16]: 0.00291%

DHHLDLPRGKAIKPEILGH
P3_MyD88 Rank (after) [4]: 483 | P3_MyD88 Rank (before) [5]: 2026

YTALSYRGFHDFRGNE
P3_MyD88 Rank (after) [4]: 504 | P3_MyD88 Rank (before) [5]: 1638

WDCASNMEQFWDLPYY
Rank (after) [6]: 920 | Rank (before) [7]: 1639

LGYHWNDGEYFVGIKD
P8_MyD88 Rank (after) [4]: 489 | P8_MyD88 Rank (before) [5]: 3306

LKVENWRQALEQAGKL
P3_MyD88 Rank (after) [14]: 203 | P3_MyD88 Rank (before) [15]: 2526

DPQDLDWFYERQVRLF
Rank (after) [6]: 915 | Rank (before) [7]: 2794

YTALNNSGFNTFRDND
Rank (after) [10]: 188 | Rank (before) [11]: 1704

DPQDLDWFYERLVSL
P8_MyD88 Rank (after) [14]: 233 | P8_MyD88 Rank (before) [15]: 716

YAFTGHLHHALRLNKIETF
Rank (after) [10]: 95 | Rank (before) [11]: 278

PEKANGGENAFFNNIV
P3_MyD88 Rank (after) [4]: 566 | P3_MyD88 Rank (before) [5]: 2705

VTSSWALEELRHIMEL
Rank (after) [6]: 947 | Rank (before) [7]: 2269

NELCMCGAAKRIAWW
Rank (after) [10]: 175 | Rank (before) [11]: 1238

YGHESEIIKEIVDTIV
Population [16]: 0.00262%

WALDELLQILRARDLF
P8_MyD88 Rank (after) [12]: 727 | P8_MyD88 Rank (before) [13]: 1465

DPQDLDWFFERLVSLL
Rank (after) [1]: 117 | Rank (before) [2]: 707

QDLEQFYERLVSLI
P8_MyD88 Rank (after) [12]: 685 | P8_MyD88 Rank (before) [13]: 3567

GFLYQAFAREGLWRLLELSKK
Rank (after) [10]: 172 | Rank (before) [11]: 912

NELLHVWSSKANSLEG
P3_MyD88 Rank (after) [8]: 648 | P3_MyD88 Rank (before) [9]: 3394

NSSWALEELVKIMEAM
Rank (after) [1]: 186 | Rank (before) [2]: 239

QLIQQWIELHLHQLH
P8_MyD88 Rank (after) [8]: 588 | P8_MyD88 Rank (before) [9]: 3585

WDFASNMEQLLDRLYY
Rank (after) [1]: 406 | Rank (before) [2]: 1626

YASYDDNDYYWMTHVLLRHM
P8_MyD88 Rank (after) [12]: 771 | P8_MyD88 Rank (before) [13]: 1816

WALDELLQILHVSEMF
P8_MyD88 Rank (after) [12]: 747 | P8_MyD88 Rank (before) [13]: 1418

DLLVLEWFYERVFSQM
P8_MyD88 Rank (after) [12]: 713 | P8_MyD88 Rank (before) [13]: 2590

LGYQCIDWEYFVDIED
P8_MyD88 Rank (after) [8]: 644 | P8_MyD88 Rank (before) [9]: 3332

LVAHELLKKMKIFATI
P3_MyD88 Rank (after) [14]: 232 | P3_MyD88 Rank (before) [15]: 2275

YTSLTNRGFLIFRDND
P3_MyD88 Rank (after) [8]: 596 | P3_MyD88 Rank (before) [9]: 1624

NQWRNALTAAANLGGL
P3_MyD88 Rank (after) [12]: 701 | P3_MyD88 Rank (before) [13]: 3513

DIEYIHLFWDRLLYSL
P8_MyD88 Rank (after) [4]: 526 | P8_MyD88 Rank (before) [5]: 3060
